What is called IC50 is the midpoint of a concentration-inhibition curve.

We go through one compound from article PMC3041267 (Angewandte Chemie (International ed. in English), 2009).

The assay concerns HDAC activity in HeLa cell nuclear extracts. The format is biochemical. The note with it: read-out: IC50, inhibition of HDAC activity in HeLa cell nuclear extracts; preliminary assessment, fluorescence assay.

For `CCC(=O)CCCCC[C@@H]1NC(=O)[C@H]2CCCCN2C(=O)[C@H]([C@@H](C)CC)NC(=O)[C@H](Cc2cn(OC)c3ccccc23)NC1=O` [apicidin], the IC50 was at most 100 nM.
